{
  "source": "the NIST ThermoML archive (doi:10.1016/j.jct.2016.08.026)",
  "key": {"[1]": {"details": "101 kPa, Liquid, Pycnometric method"}, "[2]": {"experiment": "xn = mol fraction of the nth substance listed", "details": "101 kPa, Liquid, Pycnometric method, x1 = 1"}},
  "note": "Numbers after ± are expanded uncertainties.",
  "data": [
    {"smiles": "CC#N", "note": "[acetonitrile]", "values": [
      {"measurement": "mass density", "setting": "[1]; 293.15 K", "result": "782.12 ± 1", "unit": "kg/m3"},
      {"measurement": "mass density", "setting": "[1]; 298.15 K", "result": "776.82 ± 1", "unit": "kg/m3"},
      {"measurement": "mass density", "setting": "[1]; 303.15 K", "result": "771.52 ± 1", "unit": "kg/m3"},
      {"measurement": "mass density", "setting": "[1]; 308.15 K", "result": "766.21 ± 1", "unit": "kg/m3"},
      {"measurement": "mass density", "setting": "[1]; 313.15 K", "result": "760.9 ± 1", "unit": "kg/m3"},
      {"measurement": "mass density", "setting": "[1]; 318.15 K", "result": "755.59 ± 1", "unit": "kg/m3"}
    ]},
    {"smiles": "CC#N", "note": "[acetonitrile] + C=CC(=O)OC", "values": [
      {"measurement": "mass density", "setting": "[2]; 293.15 K", "result": "782.12 ± 1", "unit": "kg/m3"},
      {"measurement": "mass density", "setting": "[2]; 298.15 K", "result": "776.82 ± 1", "unit": "kg/m3"},
      {"measurement": "mass density", "setting": "[2]; 303.15 K", "result": "771.52 ± 1", "unit": "kg/m3"},
      {"measurement": "mass density", "setting": "[2]; 308.15 K", "result": "766.21 ± 1", "unit": "kg/m3"},
      {"measurement": "mass density", "setting": "[2]; 313.15 K", "result": "760.9 ± 1", "unit": "kg/m3"},
      {"measurement": "mass density", "setting": "[2]; 318.15 K", "result": "755.59 ± 1", "unit": "kg/m3"}
    ]},
    {"smiles": "CC#N", "note": "[acetonitrile] + C=CC(=O)OC(C)(C)C", "values": [
      {"measurement": "mass density", "setting": "[2]; 293.15 K", "result": "782.12 ± 1", "unit": "kg/m3"},
      {"measurement": "mass density", "setting": "[2]; 298.15 K", "result": "776.82 ± 1", "unit": "kg/m3"},
      {"measurement": "mass density", "setting": "[2]; 303.15 K", "result": "771.52 ± 1", "unit": "kg/m3"},
      {"measurement": "mass density", "setting": "[2]; 308.15 K", "result": "766.21 ± 1", "unit": "kg/m3"},
      {"measurement": "mass density", "setting": "[2]; 313.15 K", "result": "760.9 ± 1", "unit": "kg/m3"},
      {"measurement": "mass density", "setting": "[2]; 318.15 K", "result": "755.59 ± 1", "unit": "kg/m3"}
    ]},
    {"smiles": "CC#N", "note": "[acetonitrile] + C=CC(=O)OCC", "values": [
      {"measurement": "mass density", "setting": "[2]; 293.15 K", "result": "782.12 ± 1", "unit": "kg/m3"},
      {"measurement": "mass density", "setting": "[2]; 298.15 K", "result": "776.82 ± 1", "unit": "kg/m3"},
      {"measurement": "mass density", "setting": "[2]; 303.15 K", "result": "771.52 ± 1", "unit": "kg/m3"},
      {"measurement": "mass density", "setting": "[2]; 308.15 K", "result": "766.21 ± 1", "unit": "kg/m3"},
      {"measurement": "mass density", "setting": "[2]; 313.15 K", "result": "760.9 ± 1", "unit": "kg/m3"},
      {"measurement": "mass density", "setting": "[2]; 318.15 K", "result": "755.59 ± 1", "unit": "kg/m3"}
    ]},
    {"smiles": "CC#N", "note": "[acetonitrile] + C=CC(=O)OCCCC", "values": [
      {"measurement": "mass density", "setting": "[2]; 293.15 K", "result": "782.12 ± 1", "unit": "kg/m3"},
      {"measurement": "mass density", "setting": "[2]; 298.15 K", "result": "776.82 ± 1", "unit": "kg/m3"},
      {"measurement": "mass density", "setting": "[2]; 303.15 K", "result": "771.52 ± 1", "unit": "kg/m3"},
      {"measurement": "mass density", "setting": "[2]; 308.15 K", "result": "766.21 ± 1", "unit": "kg/m3"},
      {"measurement": "mass density", "setting": "[2]; 313.15 K", "result": "760.9 ± 1", "unit": "kg/m3"},
      {"measurement": "mass density", "setting": "[2]; 318.15 K", "result": "755.59 ± 1", "unit": "kg/m3"}
    ]},
    {"smiles": "C=CC(=O)OC(C)(C)C", "note": "[tert-butyl acrylate]", "values": [
      {"measurement": "mass density", "setting": "[1]; 293.15 K", "result": "884.13 ± 1", "unit": "kg/m3"},
      {"measurement": "mass density", "setting": "[1]; 298.15 K", "result": "879.66 ± 1", "unit": "kg/m3"},
      {"measurement": "mass density", "setting": "[1]; 303.15 K", "result": "875.2 ± 1", "unit": "kg/m3"},
      {"measurement": "mass density", "setting": "[1]; 308.15 K", "result": "870.74 ± 1", "unit": "kg/m3"},
      {"measurement": "mass density", "setting": "[1]; 313.15 K", "result": "866.28 ± 1", "unit": "kg/m3"},
      {"measurement": "mass density", "setting": "[1]; 318.15 K", "result": "861.82 ± 1", "unit": "kg/m3"}
    ]}
  ]
}
